For four compounds, CC50, MCC and IC50 results are on record in ChEMBL document CHEMBL1135344, “Synthesis and antiviral/antiproliferative activity of some N-sulphonylbenzimidazoles” (Bioorg Med Chem Lett, 2002).

The subject of test [1] is HEL. Kind of test: Cytotoxic concentration reducing HEL cell growth by 50%. Particulars: Homo sapiens. Type of test: functional.
Test [2] relates to HEL. The test can be described thus: Minimum cytotoxic concentration against HEL cell morphology. Type of test: functional. Particulars: Homo sapiens.
Test [3] concerns Human alphaherpesvirus 3. Kind of test: Antiviral activity was tested against TK- Varicella-Zoster virus 07/1 which reduces virus plaque formation by 50%. Format: functional, organism-based.
Test [4] deals with Human alphaherpesvirus 3. Kind of test: Antiviral activity was tested against TK+ Varicella-Zoster virus OKA which reduces virus plaque formation by 50%. Format: functional, organism-based.
The test system of test [5] is Human alphaherpesvirus 3. The test can be described thus: Antiviral activity was tested against TK+ Varicella-Zoster virus YS which reduces virus plaque formation by 50%. Type of test: functional, organism-based.
Test [6] relates to Human alphaherpesvirus 3. The test can be described thus: Antiviral activity was tested against TK- Varicella-Zoster virus YS/R which reduces virus plaque formation by 50%. Type of test: functional, organism-based.
Test [7] has as its system Human betaherpesvirus 5. The test can be described thus: Antiviral activity was tested against human cytomegalovirus AD-169 which reduces virus plaque formation by 50%. Format: functional, organism-based.
In test [8] the test system is Human betaherpesvirus 5. The test can be described thus: Antiviral activity was tested against human cytomegalovirus Davis which reduces virus plaque formation by 50%. Format: functional, organism-based.

Values after ≈ are worked out from the molar mass of the structure shown. Bounds are passed on as bounds.

As for `Nc1nc2c(ncn2COCCO)c(=O)[nH]1` [ACYCLOVIR], the CC50 (commonly the concentration that lowers cell viability or growth by half) in the test with HEL [1] is above 200 µg/mL. This compound also yielded an MCC in the test on HEL [2] above 50 µg/mL. For the same compound, the IC50 (as a rule, the concentration that gives 50% inhibition) with Human alphaherpesvirus 3 [3] worked out at 6.5 µg/mL (≈ 28.9 µM); with Human alphaherpesvirus 3 [4] it was 0.35 µg/mL (≈ 1.55 µM); in the test with Human alphaherpesvirus 3 [5] it was 0.38 µg/mL (≈ 1.69 µM); in the test on Human alphaherpesvirus 3 [6], 3.1 µg/mL (≈ 13.8 µM).
In the case of `O=c1[nH]c(=O)n([C@H]2C[C@H](O)[C@@H](CO)O2)cc1/C=C/Br` [BRIVUDINE], the CC50 in the test on HEL [1] is above 200 µg/mL. Moreover, the MCC in the test on HEL [2] was above 50 µg/mL. Also, the IC50 in the test with Human alphaherpesvirus 3 [3] is 6.8 µg/mL (≈ 20.4 µM); in the test on Human alphaherpesvirus 3 [4], 0.002 µg/mL (≈ 0.006 µM); with Human alphaherpesvirus 3 [5], 0.003 µg/mL (≈ 0.00901 µM); in the test with Human alphaherpesvirus 3 [6] it was 6.4 µg/mL (≈ 19.2 µM).
Compound `Nc1ccn(C[C@@H](CO)OCP(=O)(O)O)c(=O)n1.O.O` [CIDOFOVIR] returned a CC50 in the test on HEL [1] above 50 µg/mL. The compound also registered an MCC with HEL [2] above 50 µg/mL. The results for the IC50 with Human betaherpesvirus 5 [7] and in the test with Human betaherpesvirus 5 [8] were 0.1 µg/mL and 0.3 µg/mL, respectively.
Consider `Nc1nc2c(ncn2COC(CO)CO)c(=O)[nH]1` [GANCICLOVIR], for which the CC50 in the test with HEL [1] was above 50 µg/mL. The MCC with HEL [2] was above 50 µg/mL. Also, the IC50 in the test with Human betaherpesvirus 5 [7] is 0.3 µg/mL (≈ 1.18 µM); in the test with Human betaherpesvirus 5 [8] it was 0.4 µg/mL (≈ 1.57 µM).
